“And” between values parts separate entries of the source, which are not always exact repeats. Equal entries are not always repeated.
Assays:
[1] = test system: ATP-dependent potassium current (IK(ATP)); experiment: whole-cell patch-clamp of pinacidil-primed IK(ATP) in isolated ventricular myocytes; assay type: cell-based, guinea pig; conditions: for outward current density at +30 mV under control conditions: before pinacidil
Description: The electrophysiological properties of a cardiac myocyte are strongly affected by its energetic condition. Particularly, the adenosine triphosphate (ATP)-dependent potassium current (IK(ATP)) is known to link bioenergetic metabolism with membrane excitability by sensing intracellular concentrations of ATP and adenosine diphosphate (ADP). Under physiological conditions, ATP-dependent potassium channels (K(ATP)-channels) are predominantly closed due to inhibition by intracellular ATP (ATPi). However, when the ATPi concentration falls below certain values (like in pathological states such as acute myocardial ischaemia), the K(ATP)-channels open. […] Thus, the amount of IK(ATP) activation induced by these drugs serves as an indicator of the intracellular ATP-content.
In this example, guinea pig ventricular myocytes were isolated by Langendorff perfusion using collagenase, as is described in H. M. Piper et al., Culturing of calcium stable adult cardiac myocytes, J. Mol. Cell Cardiol. 14 (1982), pp. 397-412. The isolated myocytes were stored in a cell culture medium M 199 (Sigma™, St. Louis, Mo.), supplemented with 5 μg/ml penicillin and 5 IU/ml of streptomycin and were kept in an incubator at 37° C. All experiments were performed within 24 hours after isolation of the myocytes.
Membrane currents were recorded using the whole-cell single electrode voltage-clamp configuration of the patch-clamp technique (see O. P. Hamill et al., Improved patch-clamp techniques for high-resolution current recording from cells and cell-free membrane patches, Pflüger's Arch. 391 (1981), pp. 85-100) using a List L/M-EPC 7 amplifier (List™, Darmstadt, Germany) as previously described by Pelzmann and coworkers in B. Pelzmann et al., Effects of K^+ channel openers on IK(ATP) of human atrial myocytes at physiological temperatures, Naunyn-Schmiedeberg's Arch. […] Only quiescent rod-shaped cells with clear cross striation were used for voltage-clamp experiments. Cell membrane capacitance (Cm) was determined by integration of the capacitive transient elicited by a 10 mV hyperpolarizing pulse from −50 mV. Cm (up to 100 pF) and series resistance (Rs, by at least 50%) were compensated. Voltage-clamp pulses were generated with an IBM-compatible computer connected to a D/A and A/D converter (Digidata 1200™, Axon Instruments, Foster City, USA). Data acquisition and analyses were performed using pCLAMP 5.7.1 software (Axon Instruments). In order to allow equilibration of the pipette solution with the cytosol, current recordings were started five minutes after rupture of the membrane patch.
Two experimental protocols were used in these examples. Modulation of IK(ATP) by drugs was evaluated as the change of outward current density (current amplitudes divided by Cm (pA/pF) in order to compensate for variations in cell size) at +30 mV in response to a 2 second ramp from −100 to +60 mV (Iramp). Time course of IK(ATP) activation and blockade was studied by recording the holding current at −40 mV (Ihold(−40 mV)). Stock solutions of IK(ATP) channel blocker glibenclamide (Sigma™) and of K(ATP) channel opener pinacidil (Sigma™) were prepared in dimethyl sulfoxide (DMSO). Averaged data are expressed as a mean±standard deviation (or standard error of the mean, SEM), with n=number of cells. Error bars in the figures represent standard deviations (except in FIG. 5).
(§1) Statistical significance was determined by a two-tailed Student's t-test or, if more than two conditions were compared, by one-way analysis of variance (ANOVA) with the LSD (least significant difference) post hoc test. Differences were considered significant when P<0.05.

[2] = test system: cardiomyocytes; experiment: HPLC determination of intracellular adenine nucleotide content of cardiomyocytes; assay type: cell-based, guinea pig; conditions: four hours
Protocol: The analytical method used for the determination of adenine nucleotides was that reported in Hallström, S. et al., “S-nitroso human serum albumin treatment reduces ischemia/reperfusion injury in skeletal muscle via nitric oxide release,” Circulation, 105 (2002), 3023-3038 (“Hallström et al.”). In brief, the only alterations from the analytical method reported by Hallström et al. were as follows: separation was performed on a Hypersil ODS column (5 μm, 250 mm×4 mm I.D.) using a Waters™ 717 plus Autosampler, two constaMetric™ III pumps, a gradient controller (LDC/Milton Roy) and a Waters™ 969 photodiode array detector; detector signals (absorbance at 254 nm) were recorded with an AGC™ Personal Computer; and the program Millennium (Waters™) was used for data requisition and analysis. Cardiomyocytes were deproteinized with 250 μL of 0.4 M/L perchloric acid. After centrifugation (12,000 g), 200 μL of the acid extract were neutralized with 12.5 μL of 2 M potassium carbonate (4° C.). The supernatant (10 μL) obtained after centrifugation was used for High Performance Liquid Chromatography (HPLC) analysis. The pellets of the acid extract were dissolved in 1 mL of 0.1 M sodium hydroxide and further diluted 1:10 with physiologic saline for protein determination (BCA Protein Assay, Pierce). The percentage of living cells was estimated by determining the ratio of the number of rod shaped to rounded myocytes. At least 600 myocytes were counted for each preparation.
as §1

[3] = test system: PC 12 cells; conditions: NADH-supplementation of PC 12 cells; cited from earlier work
[4] = test system: rat striatal slices; conditions: cited from earlier work
[5] = incubation in amounts equimolar to 400 μg/ml NADH

In the case of NC(=O)c1cccnc1 [nicotinamide], the “outward current density after washout of pinacidil” value [1, 5] is reported as 1.13±0.15 pA/pF, the “outward current density at +30 mV after addition of 30 μM pinacidil” value [1, 5] is reported as 30.5±4.83 pA/pF and the “outward current density at +30 mV under control conditions” value [1, 5] is reported as 2.01±0.36 pA/pF.
In the case of CC(N/C(=N\C#N)Nc1ccncc1)C(C)(C)C (stereo not drawn) [pinacidil], the “outward current density at +30 mV (Iramp)” value ([1]; 30 μM pinacidil, 1 mM ATPi) is reported as 52.2±13.8 pA/pF, the “outward current density at +30 mV (Iramp)” value ([1]; 30 μM pinacidil, 4.3 mM ATPi, control myocytes) is reported as 28.9±3.38 pA/pF and 28.3±3.26 pA/pF and the “outward current density at +30 mV after washout” value ([1]; after washout of 30 μM pinacidil (5 minutes), control myocytes) is reported as 1.81±0.22 pA/pF and 1.81±0.21 pA/pF.
With COc1ccc(Cl)cc1C(=O)NCCc1ccc(S(=O)(=O)NC(=O)NC2CCCCC2)cc1 [glibenclamide] the “inhibition of pinacidil-activated IK(ATP)” value ([1]; 1 μM glibenclamide after 30 μM pinacidil) was “completely inhibited” and the “effect on basal Iramp” value ([1]; physiological conditions, 4.3 mM ATPi, data not shown) was “did not affect Iramp”.
With NC(=O)C1=CN(C2OC(COP(=O)([O-])OP(=O)([O-])OCC3OC(n4cnc5c(N)ncnc54)C(O)C3O)C(O)C2O)C=CC1.[Na+].[Na+] (stereo not drawn) [NADH, β-nicotinamide adenine dinucleotide, reduced form, disodium salt] the “outward current density at +30 mV after application of pinacidil” value ([1]; incubation 200 μg/ml, 30 μM pinacidil, 4.3 mM ATPi) was 25.4±3.97 pA/pF, the “outward current density at +30 mV under control conditions” value ([1]; incubation 200 μg/ml, 4-6 hours) was 1.82±0.33 pA/pF and the “outward current density after washout of pinacidil” value ([1]; incubation 300 μg/ml) was 1.09±0.14 pA/pF. The “outward current density at +30 mV under control conditions” value ([1]; incubation 300 μg/ml, 4-6 hours) was 1.72±0.19 pA/pF, the “outward current density at +30 mV under control conditions” value ([1]; incubation 400 μg/ml, 4-6 hours) was 1.70±0.18 pA/pF and the “outward current density after washout of pinacidil” value ([1]; incubation 800 μg/ml) was 1.75±0.48 pA/pF. The “outward current density at +30 mV under control conditions” value ([1]; incubation 800 μg/ml, 4-6 hours) was 1.76±0.36 pA/pF, the “outward current density at +30 mV under control conditions” value ([1]; incubation 1600 μg/ml, 4-6 hours) was 2.53±0.49 pA/pF and the “ATP content in cardiomyocytes” value ([2]; 400 mcg per ml cell culture medium, control 35.35±2.57) was 45.59±1.88 nmol/mg protein of living cells. The “ADP content in cardiomyocytes compared to control” value ([2]; 400 mcg per ml) was “no significant alteration”, the “AMP content in cardiomyocytes compared to control” value ([2]; 400 mcg per ml) was “no significant alteration” and the dopamine production [3] was “increased dopamine production”. The dopamine release [4] was “increase of dopamine release”.
With NC(=O)c1ccc[n+]([C@@H]2O[C@H](COP(=O)([O-])OP(=O)(O)OC[C@H]3O[C@@H](n4cnc5c(N)ncnc54)[C@H](O)[C@@H]3O)[C@@H](O)[C@H]2O)c1 [NAD^+, β-nicotinamide adenine dinucleotide, oxidized form] the “outward current density after washout of pinacidil” value [1, 5] was 1.44±0.25 pA/pF, the “outward current density at +30 mV after addition of 30 μM pinacidil” value [1, 5] was 29.0±7.01 pA/pF and the “outward current density at +30 mV under control conditions” value [1, 5] was 1.96±0.20 pA/pF.

Source: patent US20040126751A1 (priority 2002, published 2004)
